“And” between values parts separate entries of the source, which are not always exact repeats. Identical values can stand only once. Like-named read-outs stand apart in the source and are kept apart here.
What was measured:
[1] = biological target: T1, farnesyl protein transferase (FPT), partially purified from rat brain (Rattus norvegicus, UniProt Q02293+Q04631); test: Inhibition of farnesyl protein transferase (transfer of [3H]farnesyl to Ras-CVLS); format: biochemical
T1 construct: were partially purified from rat brain by ammonium sulfate fractionation followed by Q-Sepharose
Method in brief: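 Partially purified farnesyl protein transferase with His6-tagged val12-Ha-Ras-CVLS substrate and [3H]farnesyl pyrophosphate, 30 min at room temperature. Stopped with SDS/TCA, precipitated Ras collected on GF/C filters; percent inhibition relative to DMSO vehicle control.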

[2] = tested on: Ras-CVLS processing in COS monkey kidney cells; test: COS cell assay: Ras-CVLS processing (Western blot); format: cell-based; settings: COS cells; for IC50: read-out: Inhibition of Ras Processing IC50
Experimental: 2. […] Effect of farnesyl protein transferase inhibitors on Ras processing and on disordered cell growth induced by transforming Ras. COS monkey kidney cells were transfected by electroporation with the plasmid pSV-SPORT (Gibco/BRL) containing a cDNA insert encoding either Ras-CVLS or Ras-CVLL, leading to transient overexpression of a Ras substrate for either farnesyl protein transferase or geranylgeranyl protein transferase I, respectively (see above). […] After 24 hours, media was removed and fresh media containing the appropriate drugs was re-added. 48 hours after electroporation cells were examined under the microscope to monitor disordered cell growth induced by transforming Ras. Cells expressing transforming Ras become more rounded and refractile and overgrow the monolayer, reminiscent of the transformed phenotype. […] Cells were lysed by homogenization and cell debris was removed by centrifugation at 2000×g for 10 min. Cellular protein was precipitated by addition of ice-cold trichloroacetic acid and redissolved in 100 μl of SDS-electrophoresis sample buffer. […] Proteins resolved on the gels were electroblotted onto nitrocellulose membranes for immunodetection. […] E., et al., (1982), Monoclonal antibodies to the p21 products of the transforming gene of Harvey murine sarcome virus and of the cellular ras gene family, J. Virol. 43: 294-304), in PBS containing 1% fetal calf serum for one hour at room temperature. After washing, membranes were incubated for one hour at room temperature with a 1:5000 dilution of secondary antibody, rabbit anti-rat IgG conjugated to horseradish peroxidase, in PBS containing 1% fetal calf serum.

[3] = tested on: Normal human HEPM fibroblasts; test: Cell Mat Assay: density of mat cells (mIC50); format: cell-based
Experimental: (§1) Compound-induced colony inhibition was assayed by addition of serial dilutions of compound directly to the growth medium 24 h after tumor cell planting, and incubating cells for an additional 14 d to allow colony formation. Assays were terminated by rinsing monolayers twice with phosphate-buffered saline (PBS), fixing the monolayers with a 1% glutaraldehyde solution in PBS, then visualizing tumor cells by staining with X-Gal (Price, J., et al., Lineage analysis in the vertebrate nervous system by retrovirus-mediated gene transfer, Proc. Natl. Acad. Sci.84, 156-160(1987)). […] Both IC50 values were obtained by determining the density of tumor cells and mat cells by visual inspection and enumeration of cells per colony and the number of colonies under the microscope.

[4] = tested on: T24-BAG4 human bladder carcinoma cells expressing an activated H-ras gene; test: Cell Mat Assay: tumor cell colony inhibition (tIC50); format: cell-based; settings: inhibition of tumor cell growth
Experimental: as §1

[5] = Ras-CVLS farnesylation, partially purified rat brain FPT, read-out: FPT IC50
[6] = enzyme inhibition, read-out: FPT IC50

T1 sequence (Q02293 whole entry, one chain of several): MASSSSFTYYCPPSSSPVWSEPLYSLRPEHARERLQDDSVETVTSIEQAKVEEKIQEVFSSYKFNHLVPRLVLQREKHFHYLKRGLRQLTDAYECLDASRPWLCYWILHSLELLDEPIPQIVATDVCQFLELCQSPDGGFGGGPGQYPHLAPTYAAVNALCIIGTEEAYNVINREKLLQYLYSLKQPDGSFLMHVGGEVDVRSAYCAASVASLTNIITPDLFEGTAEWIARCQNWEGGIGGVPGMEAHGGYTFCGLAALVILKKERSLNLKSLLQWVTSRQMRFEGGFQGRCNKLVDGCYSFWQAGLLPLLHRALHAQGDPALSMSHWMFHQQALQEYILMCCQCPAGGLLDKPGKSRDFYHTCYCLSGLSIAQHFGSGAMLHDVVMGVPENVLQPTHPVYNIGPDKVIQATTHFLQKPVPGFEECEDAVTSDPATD

Structure (SMILES) | IC50 [1, 5] | IC50 [4] [µM] | IC50 ([4]; Homo sapiens) [µM] | IC50 [1, 6] | IC50 [2] [µM] | IC50 [3] [µM] | IC50 ([2]; Primates, COS) [µM] | IC50 ([3]; Homo sapiens, Fibroblast) [µM] | Inhibition of Ras Processing at the concentration in parentheses ([2]; (5) μM) | IC50 ([1]; FPT IC50, Ras-CVLS farnesylation, partially purified rat brain FPT) [µM] | IC50 ([2]; listed as 266 (5.138)) [µM]
O=C(Cc1ccncc1)N1CCC(=C2c3ccc(Cl)cc3C(O)Cc3cccnc32)CC1 (centres unmarked) [Example 286] | 1.5 µM |  | 25 |  |  |  | 8.3 | > 50 |  |  | 
CN1CCC(CC(=O)N2CCN(C3c4ccc(Cl)cc4CCc4c(Cl)ccnc43)CC2)CC1 (centres unmarked) [Example 425-P] |  |  | > 3.1 | 0.45 µM |  |  | 5.7 | 3.1 |  |  | 
O=C(Nc1ccncc1)N1CCC(C2c3ccccc3CCc3cccnc32)CC1 (centres unmarked) [Example 366] | 4 µM | 3.1 |  |  | 3.3 | > 50 |  |  |  |  | 
CC(C)(C(=O)N1CCN(C2c3ccc(Cl)cc3CCc3cc(Br)cnc32)CC1)c1cccnc1 (centres unmarked) [Example 353] | 0.76 µM and 0.3 µM |  | 6.25 |  |  |  | 0.9 | > 25 |  |  | 
CC(=O)N1CCC(CC(=O)N2CCN([C@H]3c4ccc(Cl)cc4CCc4cccnc43)CC2)CC1 [225 (5.99)] | 1.6 µM |  | 12.5 |  |  |  | 6.2 | > 50 |  |  | 
O=C(Cc1ccncc1)N1CCC(C2c3ccc(Cl)cc3CCc3cccnc32)CC1 (centres unmarked) [Example 82, 4-(8-chloro-6,11-dihydro-5H-benzo-[5,6]cyclohepta[1,2-b]pyridin-11-yl)-1-[(4-pyridinyl)acetyl]-piperidine] | 0.16 µM and 0.36 µM |  | 3.1 |  |  |  | 1.2 | 40 |  |  | 
O=C(Cc1cc[n+]([O-])cc1)N1CCC(=C2c3ccc(Cl)cc3CCc3cc(Br)cnc32)CC1 [Example 400-L] | 0.095 µM and 0.09 µM | < 0.8 | < 1.6 | 0.095 µM and 0.09 µM | 0.65 | > 12.5 | 0.6 | > 25 |  |  | 
O=C(Cc1cc[n+]([O-])cc1)N1CCN(C2c3ccc(Cl)cc3CCc3c(Cl)ccnc32)CC1 (centres unmarked) [Example 426-A] |  |  | 6.25 | 0.33 µM |  |  | > 5 | > 25 |  |  | 
CC(C)(C(=O)N1CCN(C2c3ccc(Cl)cc3CCc3cc(Br)cnc32)CC1)c1ccc[n+]([O-])c1 (centres unmarked) [Example 352] | 0.74 µM and 0.38 µM |  | 1.6 |  |  |  | 2.2 | > 25 |  |  | 
CC(C)(C(=O)N1CCC(=C2c3ccc(Cl)cc3CCc3cc(Br)cnc32)CC1)c1cc[n+]([O-])cc1 [Example 411-D] |  |  | 8 | 0.62 µM |  |  | 1.6 | > 25 |  |  | 
O=C(Cc1cccnc1)N1CCC(C2c3ccc(Cl)cc3C=Cc3cccnc32)CC1 (centres unmarked) [Example 266] |  |  | 3.1 |  |  |  | 0.77 | 6.25 |  | 0.46 | 0.89
O=C(Nc1cccnc1)N1CCN(C2c3ccc(Cl)cc3CCc3cccnc32)CC1 (centres unmarked) [187 (6.7)] | 1.34 µM | 25 | 37 |  |  |  | 4.8 | > 50 |  |  | 
O=C(Cc1cccnc1)N1CCC(=C2c3ccc(Cl)cc3C=Cc3cccnc32)CC1 [Example 276] | 1.77 µM |  | 12.5 |  |  |  | 2.9 | 50 |  |  | 
CC(C)(C(=O)N1CCC(=C2c3ccc(Cl)cc3CCc3cc(Br)cnc32)CC1)c1ccc[n+]([O-])c1 [Example 411-A] |  |  | 1.6 | 0.59 µM |  |  | 0.7 | > 25 |  |  | 
O=C(Cc1ccc[n+]([O-])c1)N1CCC(=C2c3ccc(Cl)cc3CCc3cc(Br)cnc32)CC1 [Example 411-G] |  | 4 | 6.25 | 0.7 µM |  | > 12.5 | 5.1 | > 25 |  |  | 
COc1cnc2c(c1)CCc1cc(Cl)ccc1C2=C1CCN(C(=O)Cc2cccnc2)CC1 [Example 239, 4-(8-Chloro-3-methoxy-5,6-dihydro-11H-benzo[5,6]cyclohepta[1,2-b]pyridin-11-ylidene)-1-[(3-pyridinyl]acetyl]-piperidine] | 1.75 µM |  | 37 |  |  |  | 4.6 | > 50 |  |  | 
O=C(Nc1cccnc1)N1CCC(C2c3ccccc3CCc3cccnc32)CC1 (centres unmarked) [Example 365] | 5 µM | 6.25 |  |  | 3.1 | > 50 |  |  |  |  | 
O=C1Cc2cccnc2C(=C2CCN(C(=O)Cc3cccnc3)CC2)c2ccc(Cl)cc21 [Example 283] | 0.48 µM and 0.55 µM |  | 10 |  |  |  | 5.6 | > 50 |  |  | 
O=C(Cc1cc[n+]([O-])cc1)N1CCN([C@H]2c3ccc(Cl)cc3CCc3cccnc32)CC1 [Example 425-E] |  |  | 1.6 | 0.49 µM |  |  | 5 | > 25 |  |  | 

The next lines start with results.

IC50 [1, 5] | IC50 [4] [µM] | IC50 ([4]; Homo sapiens) [µM] | IC50 [1, 6] | Structure (SMILES) | IC50 [2] [µM] | IC50 [3] [µM] | IC50 ([2]; Primates, COS) [µM] | IC50 ([3]; Homo sapiens, Fibroblast) [µM] | Inhibition of Ras Processing at the concentration in parentheses ([2]; (5) μM) | IC50 ([1]; FPT IC50, Ras-CVLS farnesylation, partially purified rat brain FPT) [µM] | IC50 ([2]; listed as 266 (5.138)) [µM]
0.19 µM | 18 |  |  | O=C(Cc1ccncc1)N1CCC(=C2c3ccc(Cl)cc3CCc3c(Cl)ccnc32)CC1 [248 (5.123)] | 4.6 | > 50 |  |  |  |  | 
1.19 µM |  | < 3.1 |  | CN1CCCC(CC(=O)N2CCN(C3c4ccc(Cl)cc4CCc4cccnc43)CC2)C1 (centres unmarked) [Example 206] |  |  | 2.4 | 16 |  |  | 
1.8 µM |  | 6.3 |  | CC(=O)N1CCC(C(=O)N2CCC(=C3c4ccc(Cl)cc4CCc4cccnc43)CC2)CC1 [Example 89] |  |  | 6.3 | > 25 |  |  | 
 |  | 18 | 0.32 µM | CC(C)(C(=O)N1CCC(=C2c3ccc(Cl)cc3CCc3cc(Br)cnc32)CC1)c1ccncc1 [Example 411] |  |  | ~1 | > 25 | 93 (5) |  | 
1.8 µM |  | 12.5 |  | CC(=O)N1CCC(C(=O)N2CCN([C@H]3c4ccc(Cl)cc4CCc4cccnc43)CC2)CC1 [226 (5.101)] |  |  | 6.5 | > 50 |  |  | 
3.3 µM | 6.25 |  |  | O=C(Nc1ccccc1)N1CCC(C2c3ccccc3CCc3cccnc32)CC1 (centres unmarked) [Example 367] | 6.2 | > 50 |  |  |  |  | 
 |  | 6.25 | 0.32 µM | O=C(Cc1ccncc1)N1CCC(C2c3ccc(Cl)cc3C=Cc3cc([N+](=O)[O-])cnc32)CC1 (centres unmarked) [Example 411-B] |  |  | 1.8 | > 25 |  |  | 
2.9 µM |  | 4 |  | O=C1Cc2cc(Cl)ccc2C(=C2CCN(C(=O)Cc3ccncc3)CC2)c2ncccc21 [Example 281] |  |  | 7 | > 50 |  |  | 
 |  | 25 | 1.85 µM | O=C1Cc2cccnc2C(=C2CCN(C(=O)Cc3cc[n+]([O-])cc3)CC2)c2ccc(Cl)cc21 [Example 418] |  |  | > 10 | > 25 |  |  | 
1.2 µM |  | 18 |  | O=C(Cc1ccncc1)N1CCC(=C2c3ccc(Cl)cc3CCc3ccc(Cl)nc32)CC1 [248 (5.124)] |  |  | 2.05 | > 50 |  |  | 
